IC50 data for 3 molecules are collected here from patent US20250074895A1, “CDK2 INHIBITORS AND METHODS OF MAKING AND USING SAME” (BLUEPRINT MEDICINES CORPORATION, priority 2021, published 2025).

One assay has as its target CDK2/Cyclin E (Homo sapiens (Human), UniProt P24941). As to the kind of experiment: Biochemical CDK inhibition assay (Caliper mobility shift), CDK2/Cyclin E. The settings on record: 1.0 mM ATP or ATP Km, 1.25 nM enzyme, apparent IC50, read-out: CDK2/cyclin E1 IC50. Here is the method: (§1) Inhibitory effects of the compounds of the disclosure were measured in biochemical assays that measure the enzymatic phosphorylation activity of CDK enzyme in complex of Cyclin proteins phosphorylates 7.5 micromolar fluorescently labelled peptide substrate, 5-FAM-QSPKKG-CONH2, (FL-Peptide 18, Perkin Elmer, 760362) in the presence of adenosine-5′-triphosphate (ATP) and varying concentrations of the test compound in 100 mM 2-[4-(2-hydroxyethyl)piperazin-1-yl]ethanesulfonic acid (HEPES), pH 7.5, 10 mM MgCl2, 0.015% Brij-35, 1 mM dithiothreitol (DTT), 1.0% dimethylsulfoxide (DMSO). Assays were performed at 1.0 mM ATP or at ATP Km of the CDK enzymes in complex with Cyclin proteins. Reactions proceeded until between 10% to 20% total peptides were phosphorylated at room temperature (25° C.) and were terminated with 35 mM 2,2′,2″,2′″-(ethane-1,2-diyldinitrilo)tetraacetic acid (EDTA). Product was detected using the Caliper mobility shift detection method where the phosphorylated peptide (product) and substrate were electrophoretically separated and measured. Percent activity was plotted against log concentration of compound and points to generate an apparent IC50. The following CDK enzymes in complex with different cyclin proteins were used in these assays: • CDK1/Cyclin B1, GST-tag (BPS, 40454), 1.5 nM used in the assay • CDK2/Cyclin E (Eurofins, 14-475), 1.25 nM used in the assays
(§2) For inhibitory activity against CDK2/Cyclin […], the following designations are used: ≤10 nM=A; >10-20 nM=B; >20-30 nM=C; >30-100 nM=D and >100=E. For inhibition CDK1/Cyclin B1, GST-tag: ≥500 nM=A; 100-<500 nM=B; <100 nM=C.

The target of the next assay is CDK1/Cyclin B1, GST-tag (Homo sapiens (Human), UniProt P06493). Briefly: Biochemical CDK inhibition assay (Caliper mobility shift), CDK1/Cyclin B1. The settings on record: 1.0 mM ATP or ATP Km, 1.5 nM enzyme, apparent IC50. How it is done:
as §1, §2

CDK1/Cyclin B1, GST-tag, sequence (P06493 whole entry): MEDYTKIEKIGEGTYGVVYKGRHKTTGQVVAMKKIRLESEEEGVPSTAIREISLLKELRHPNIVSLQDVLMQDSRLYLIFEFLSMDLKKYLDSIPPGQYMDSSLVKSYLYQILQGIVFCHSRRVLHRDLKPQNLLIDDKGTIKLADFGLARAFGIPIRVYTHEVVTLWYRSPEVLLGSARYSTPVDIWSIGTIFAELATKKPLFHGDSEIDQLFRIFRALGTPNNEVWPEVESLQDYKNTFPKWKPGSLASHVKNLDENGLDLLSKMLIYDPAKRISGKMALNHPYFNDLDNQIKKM
CDK1/Cyclin B1, GST-tag, sequence (P14635 whole entry partner): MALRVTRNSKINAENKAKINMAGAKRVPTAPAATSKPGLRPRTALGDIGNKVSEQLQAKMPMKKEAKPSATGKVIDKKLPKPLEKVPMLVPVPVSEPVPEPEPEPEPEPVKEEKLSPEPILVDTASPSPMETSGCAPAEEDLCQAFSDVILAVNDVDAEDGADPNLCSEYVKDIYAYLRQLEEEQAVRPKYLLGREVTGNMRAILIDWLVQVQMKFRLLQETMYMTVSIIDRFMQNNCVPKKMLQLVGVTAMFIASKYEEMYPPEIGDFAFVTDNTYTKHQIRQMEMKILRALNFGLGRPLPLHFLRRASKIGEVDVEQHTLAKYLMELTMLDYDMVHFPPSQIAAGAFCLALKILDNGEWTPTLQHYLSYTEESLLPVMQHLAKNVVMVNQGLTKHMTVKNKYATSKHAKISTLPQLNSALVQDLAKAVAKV

For `CNC(=O)O[C@@H]1CC[C@H](c2cc(Nc3cncc(OCC4CC4)n3)n[nH]2)C1` [Example 56, (1R,3S)-3-(3-((6-(cyclopropylmethoxy)pyrazin-2-yl)amino)-1H-pyrazol-5-yl)cyclopentyl methylcarbamate], the IC50 at CDK2/Cyclin E was no more than 10 nM; on CDK1/Cyclin B1, GST-tag, less than 100 nM.

As to `CC(C)NC(=O)O[C@@H]1CC[C@H](c2cc(Nc3cnc(C#N)cn3)n[nH]2)C1` [Example 53, (1R,3S)-3-(3-((5-cyanopyrazin-2-yl)amino)-1H-pyrazol-5-yl)cyclopentyl isopropylcarbamate], the IC50 on CDK2/Cyclin E is no more than 10 nM; on CDK1/Cyclin B1, GST-tag it was 100 to 500 nM.

As for `CC(C)(O)c1cnc(Nc2cc([C@H]3CC[C@@H](OC(=O)N4CCC4(C)C)C3)[nH]n2)cn1` [Example 50, (1R,3S)-3-(3-((5-(2-hydroxypropan-2-yl)pyrazin-2-yl)amino)-1H-pyrazol-5-yl)cyclopentyl 2,2-dimethylazetidine-1-carboxylate], the IC50 is no more than 10 nM on CDK2/Cyclin E and less than 100 nM at CDK1/Cyclin B1, GST-tag.
